Literature values as cited in US20260014083A1, “Orally Administrable Pharmaceutical Dosage Form Comprising Lanthanum and Its Use in a Method Of Treatment of Hyperoxaluria” (AMGMT, priority 2022, published 2026).
Where two headings read alike, the source gives them in different places. Blank lines part the entries; values can stand above or below the molecule they belong to.

Tests used:
[1] = test system: rat; conditions: oxalate loading
[2] = in vivo
[3] = test system: patients with enteric hyperoxaluria

Molecule: O=C([O-])[O-].O=C([O-])[O-].O=C([O-])[O-].[La+3].[La+3] [Lanthanum carbonate, lanthanum carbonate]
CaOx crystalluria [1]: decrease | calciuria [1]: minor increase | oxaluria [1]: decrease | phosphaturia [1]: striking increase

gastro-intestinal absorption [2]: 0.01%
Molecule: [La] [lanthanum]

calciuria (in vivo): increased calciuria
Molecule: [Al] [aluminum]

Molecule: O=C([O-])[O-].[Ca+2] [calcium carbonate]
calciuria (current powerful phosphate binders): increased calciuria

B1: reloxaliase: an oral enzyme therapeutic (Allena Pharmaceuticals) (protein, UniProt O34714 1-385, looked up)
Oxalate decarboxylase OxdC: MKKQNDIPQPIRGDKGATVKIPRNIERDRQNPDMLVPPETDHGTVSNMKFSFSDTHNRLEKGGYAREVTVRELPISENLASVNMRLKPGAIRELHWHKEAEWAYMIYGSARVTIVDEKGRSFIDDVGEGDLWYFPSGLPHSIQALEEGAEFLLVFDDGSFSENSTFQLTDWLAHTPKEVIAANFGVTKEEISNLPGKEKYIFENQLPGSLKDDIVEGPNGEVPYPFTYRLLEQEPIESEGGKVYIADSTNFKVSKTIASALVTVEPGAMRELHWHPNTHEWQYYISGKARMTVFASDGHARTFNYQAGDVGYVPFAMGHYVENIGDEPLVFLEIFKDDHYADVSLNQWLAMLPETFVQAHLDLGKDFTDVLSKEKHPVVKKKCSK
modifications: crosslinked enzyme crystals
least square mean treatment difference ([3]; versus placebo, p=0.004): −14.3% | mean reduction in average 24-hour urinary oxalate excretion ([3]; weeks 1-4, placebo 9.7%): 22.6%
